The values below are quoted from earlier work in patent US8394592B2, “Methods for assessing cancer susceptibility to carcinogens in tobacco products” (The Board of Regents of the University of Texas System, priority 2006, dated 2013).

The test system of one data set is rats. To be noted: cited from earlier work.
For a further data set, the system named is Salmonella. Particulars: Ames Salmonella assay; cited from earlier work.

With `CN(CCCC(=O)c1cccnc1)N=O` [NNK, 4-(methylnitrosamino)-1-(3-pyridyl)-1-butanone], in the data set with rats, the “lowest dose shown to induce lung tumors” value was 1.8 mg. Moreover, in the data set with Salmonella, the mutagenicity entry is “potent mutagen”.
